# According to patent publication US10626094B2 (La Jolla Institute of Allergy & Immunology, priority 2014, dated 2020):
# Target: LMPTP-A (Low Molecular Weight Protein Tyrosine Phosphatase-A) enzyme (Homo sapiens (Human), UniProt P24666)
# Assay: LMPTP primary screening / LMPTP (OMFP) enzyme inhibition assay, fluorescence intensity
# Format: biochemical
# Conditions: LMPTP-A, OMFP substrate, method of Example 2; read-out: IC50
# Experimental: This assay attempts to identify inhibitors of the LMPTP-A (Low Molecular Weight Protein Tyrosine Phosphatase-A) enzyme. It is run in 1536-well format and is measured via fluorescence intensity.
# A listing of materials is provided: • Item, source, catalog no. • LMPTP-A Enzyme Stock Solution (4.22 mg/ml or 206.8 μM), SBMRI Protein Facility, • N/A • OMFP, Sigma, M2629-100MG • Bis-Tris pH 6.0, Fisher Sci, BP301-100 • Triton-X 100, Sigma, T9284 • DTT, Sigma, D9779 • Mol. Grade Water, Mediatech, Inc., 46-000-CM • 1536-well black High base opaque bottom plate, Nexus Biosystems, 00019120
# Final assay conditions are: • 0.625 nM LMPTP-A Enzyme • 400 μM OMFP • 50 mM Bis-Tris pH 6.0 • 1 mM DTT • 0.01% Triton-X 100 • 20 μM test compound • 3% DMSO (2% from substrate and 1% from compounds) • 6 μL reaction volume • 50 minutes incubation at room temp
# Assay Procedure • 1. Prepare Reagents as described in section F. Recipe. • 2. Using LabCyte Echo, transfer 60 nL from 2 mM test compound source plate into assay plate Col. 5-48 (final concentration of test compounds is 20 μM). 60 nL of DMSO should be transferred to col. 1-4 for positive and negative control wells. • 3. Spin plates at 1000 rpm for 1 minute in centrifuge. • 4. […] Using the Bioraptr, add 3 μL/well of enzyme solution to col. 3-48. • 6. Using the Bioraptr, add 3 μL/well of substrate solution to col. 1-48. • 7. Spin plates at 1000 rpm for 1 minute in centrifuge. • 8. Incubate plates in the dark at room temperature for 50 minutes. • 9. Read plates on PerkinElmer Viewlux using a FI protocol.
# Chain of LMPTP-A (Low Molecular Weight Protein Tyrosine Phosphatase-A) enzyme (P24666 whole entry): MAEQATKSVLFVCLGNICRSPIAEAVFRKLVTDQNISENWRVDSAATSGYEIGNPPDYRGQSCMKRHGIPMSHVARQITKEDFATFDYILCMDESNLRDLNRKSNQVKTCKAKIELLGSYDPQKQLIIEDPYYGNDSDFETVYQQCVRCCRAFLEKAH
row,IC50 [nM],Compound
1,801 to 5000,O=C(NCC(F)(F)F)c1ccc(-c2cc(NCCCN3CCCCC3)c3ccccc3n2)cc1 [Compound I63]
2,> 5000,FC(F)(F)c1ccc(Nc2cc(NCCCN3CCCCC3)c3ccccc3n2)c(C(F)(F)F)c1 [Compound I75]
3,801 to 5000,CSc1ccc(-c2cc(NCCCN3CCCCC3)c3ccccc3n2)c(C(F)(F)F)c1 [Compound I114]
4,801 to 5000,O=S(=O)(c1ccccc1)n1ccc2cc(-c3cc(NCCCN4CCCCC4)c4ccccc4n3)ccc21 [Compound I260]
5,200 to 800,O=C(NC1CCNCC1)c1ccc(-c2cc(NCCCN3CCCCC3)c3ccccc3n2)cc1 [Compound I196]
6,801 to 5000,"COc1ccc(-c2cc(NCc3ccc(CN4CCCCC4)cc3)c3ccccc3n2)cc1 [Compound I210, [2-(4-methoxyphenyl)(4-quinolyl)]{[4-(piperidylmethyl)phenyl]methyl}amine]"
7,801 to 5000,COc1ccc(-c2cc(NCCCc3cccnc3)c3ccccc3n2)cc1 [Compound I203]
8,801 to 5000,Cc1ccc(C)c(-c2cc(NCCCN3CCCCC3)c3ccccc3n2)c1 [Compound I107]
9,> 5000,"CN1CCCC1CCNc1cc(-c2ccc(C(F)(F)F)cc2C(F)(F)F)nc2ccccc12 (stereo not shown) [Compound I53, {2-[2,4-bis(trifluoromethyl)phenyl](4-quinolyl)}[2-(1-methylpyrrolidin-2-yl)ethyl]amine]"
10,801 to 5000,O=C(NCC1CCCO1)c1ccc(-c2cc(NCCCN3CCCCC3)c3ccccc3n2)cc1 (stereo not shown) [Compound I64]
11,801 to 5000,CN(C)C(=O)c1ccc(-c2cc(NCCCN3CCCCC3)c3ccccc3n2)cc1 [Compound I72]
12,200 to 800,O=C(NCCCN1CCCCC1)c1ccc(-c2cc(NCCCN3CCCCC3)c3ccccc3n2)cc1 [Compound I198]
13,801 to 5000,O=C(O)CNC(=O)c1ccc(-c2cc(NCCCN3CCCCC3)c3ccccc3n2)cc1 [Compound I68]
14,801 to 5000,Clc1cccc(-c2cc(NCCCc3cccnc3)c3ccccc3n2)c1 [Compound I202]
15,801 to 5000,(3-piperidylpropyl)(2-(3-pyridyl)(4-quinolyl))amine [Compound I147]
16,200 to 800,O=C(NCc1ccccc1)c1ccc(-c2cc(NCCCN3CCCCC3)c3ccccc3n2)cc1 [Compound I253]
17,801 to 5000,"COc1ccc(-c2cc(Nc3cccc(CN4CCCC4)c3)c3c(n2)CCCC3)cc1 [Compound I209, [2-(4-methoxyphenyl)(4-5,6,7,8-tetrahydroquinolyl)][3-(pyrrolidinylmethyl)phenyl]amine]"
18,801 to 5000,COc1ccc(-c2cc(NCCCN3CCCCC3)c3ccccc3n2)cc1OC [Compound I108]
19,801 to 5000,O=C(O)CCC(=O)Nc1ccc(-c2cc(NCCCN3CCCCC3)c3ccccc3n2)cc1 [Compound I58]
20,> 5000,Cc1cc(NCCCN2CCCCC2)c2ccccc2n1 [Compound I151]
21,> 5000,"CN(C)Cc1cccc(Nc2cc(-c3cc(C(F)(F)F)cc(C(F)(F)F)c3)nc3ccccc23)c1 [Compound I42, {[3-({2-[3,5-bis(trifluoromethyl)phenyl](4-quinolyl)}amino)phenyl]methyl}dimethylamine]"
22,> 5000,"FC(F)(F)c1cc(-c2cc(Nc3cccc(CC4CCN(Cc5ccccc5)CC4)c3)c3ccccc3n2)cc(C(F)(F)F)c1 [Compound I50, {2-[3,5-bis(trifluoromethyl)phenyl](4-quinolyl)}(3-{[1-benzyl(4-piperidyl)]methyl}phenyl)amine]"
23,801 to 5000,CS(=O)(=O)c1cccc(-c2cc(NCCCN3CCCCC3)c3ccccc3n2)c1 [Compound I146]
24,200 to 800,Fc1cc(Cl)ccc1-c1cc(NCCCN2CCCCC2)c2ccccc2n1 [Compound I126]
25,801 to 5000,CC(C)CNC(=O)c1ccc(-c2cc(NCCCN3CCCCC3)c3ccccc3n2)cc1 [Compound I226]
26,> 5000,COc1cccc(OC)c1-c1cc(NCCCN2CCCCC2)c2ccccc2n1 [Compound I172]
27,801 to 5000,"c1ccc2c(NCCCN3CCCCC3)cc(-c3ccc4c(c3)OCO4)nc2c1 [Compound I167, (2-(2H-benzo[3,4-d]1,3-dioxolen-5-yl)(4-quinolyl))(3-piperidylpropyl)amine]"
28,> 5000,"CN(C)CCNc1cc(-c2ccccc2)nc2ccccc12 [Compound I183, dimethyl{2-[(2-phenyl(4-quinolyl))amino]ethyl}amine]"

# More lines, now with the values behind:
row,Compound,IC50 [nM]
1,"Clc1cccc(-c2cc(Nc3cccc(CC4CCN(Cc5ccccc5)CC4)c3)c3ccccc3n2)c1 [Compound I17, [2-(3-chlorophenyl)(4-quinolyl)](3-{[1-benzyl(4-piperidyl)]methyl}phenyl)amine]",801 to 5000
2,"COc1ccc(-c2cc(Nc3ccnnc3)c3ccccc3n2)cc1 [Compound G71, [2-(4-methoxyphenyl)(4-quinolyl)]pyridazin-4-ylamine]",801 to 5000
3,[2-(5-bromo-3-chloro-2-fluorophenyl)(4-quinolyl)](3-piperidylpropyl)amine [Compound I239],801 to 5000
4,"CN(C)c1ccc(-c2cc(NCCCN3CCCCC3)c3ccccc3n2)cc1 [Compound G10, [2-(4-Dimethylamino-phenyl)-quinolin-4-yl]-(3-piperidin-1-yl-propyl)-amine]",801 to 5000
5,"COc1ccc(-c2cc(NCCCN3CCCCC3)c3cc(OC)ccc3n2)cc1 [Compound G25, [6-Methoxy-2-(4-methoxy-phenyl)-quinolin-4-yl]-(3-piperidin-1-yl-propyl)-amine]",> 5000
6,COc1ccc(-c2cc(Nc3ccn(C)n3)c3ccccc3n2)cc1 [Compound G46],801 to 5000
7,"CN(C)Cc1ccc(Nc2cc(-c3cccc(Cl)c3)nc3ccccc23)cc1 [Compound I16, [(4-{[2-(3-chlorophenyl)(4-quinolyl)]amino}phenyl)methyl]dimethylamine]",801 to 5000
8,"FC(F)(F)c1ccc(C(F)(F)F)c(-c2cc(Nc3cccc(CC4CCN(Cc5ccccc5)CC4)c3)c3ccccc3n2)c1 [Compound I40, {2-[2,5-bis(trifluoromethyl)phenyl](4-quinolyl)}(3-{[1-benzyl(4-piperidyl)]methyl}phenyl)amine]",> 5000
9,"CCN1CCC(Cc2cccc(Nc3cc(-c4ccc(OC)cc4)nc4ccccc34)c2)CC1 [Compound I30, {3-[(1-ethyl(4-piperidyl))methyl]phenyl}[2-(4-methoxyphenyl)(4-quinolyl)]amine]",200 to 800
10,"COc1ccc(-c2cc(Nc3cccc(CN4CCCN(C)CC4)c3)c3ccccc3n2)cc1 [Compound G57, [2-(4-methoxyphenyl)(4-quinolyl)]{3-[(4-methyl(1,4-diazaperhydroepinyl))methyl]phenyl}amine]",200 to 800
11,"CN1CCCC1CCNc1cc(-c2cccc(Cl)c2)nc2ccccc12 (stereo not shown) [Compound I15, [2-(3-chlorophenyl)(4-quinolyl)][2-(1-methylpyrrolidin-2-yl)ethyl]amine]",801 to 5000
12,"CN(C)c1cc(-c2ccccc2C(F)(F)F)nc2ccccc12 [Compound D2, N,N-dimethyl-2-(2-(trifluoromethyl)phenyl)quinolin-4-amine]",801 to 5000
13,"COc1ccc(-c2cc(Nc3ccccc3CC3CCNCC3)c3ccccc3n2)cc1 [Compound I38, [2-(4-methoxyphenyl)(4-quinolyl)][2-(4-piperidylmethyl)phenyl]amine]",> 5000
14,"COc1ccc(-c2cc(Nc3cccc(CN4CCS(=O)(=O)CC4)c3)c3ccccc3n2)cc1 [Compound G62, 4-[(3-{[2-(4-methoxyphenyl)-4-quinolyl]amino}phenyl)methyl]-1,4-thiazaperhydroine-1,1-dione]",801 to 5000
15,"COc1ccc(-c2cc(NCCc3ccccc3)c3ccccc3n2)cc1 [Compound G83, [2-(4-methoxyphenyl)(4-quinolyl)](2-phenylethyl)amine]",801 to 5000
16,"COc1ccc(-c2cc(Nc3cccc(CN(C)C)c3)c3ccccc3n2)cc1 [Compound G58, [(3-{[2-(4-methoxyphenyl)(4-quinolyl)]amino}phenyl)methyl]dimethylamine]",200 to 800
17,"COc1ccc(-c2cc(NCCCN3CCCCC3)c3cc(C(F)(F)F)ccc3n2)cc1 [Compound G28, [2-(4-Methoxy-phenyl)-6-trifluoromethyl-quinolin-4-yl]-(3-piperidin-1-yl-propyl)-amine]",> 5000
18,"[2-(4-methoxyphenyl)(4-5,6,7,8-tetrahydroquinolyl)][4-(piperidylmethyl)phenyl]amine [Compound I207]",801 to 5000
19,COc1ccc(-c2cc(Nc3cccc4cccnc34)c3ccccc3n2)cc1 [Compound G69],> 5000
20,"CN1CCC(Cc2cccc(Nc3cc(-c4cccc(Cl)c4)nc4ccccc34)c2)CC1 [Compound I18, [2-(3-chlorophenyl)(4-quinolyl)]{3-[(1-methyl(4-piperidyl))methyl]phenyl}amine]",801 to 5000
21,[2-(5-bromo-2-methoxy(4-pyridyl))(4-quinolyl)](3-piperidylpropyl)amine [Compound I89],801 to 5000
